Patent publication US7985072B2, “Method and apparatus for tooth rejuvenation and hard tissue modification” (Rejuvedent LLC, priority 2005, dated 2011)

Columns and labels:
[1] = test system: premolar teeth of a subject; assay: Example 1: in-office tooth whitening treatment
gingival tissue = assay: Safe treatment time (STT): onset of discomfort on subjects' gingival tissue; assay type: in vivo, human; design: key to effect of discomfort on gingival tissue: “−” means that the subject experienced no discomfort; “+” means that some discomfort was reported
Protocol: It was discovered, that a high concentration and low pH acid can work well for exposure times long enough to produce significant changes to hard tissue. The use of high concentration, edible acids for treatment of hard tissues is limited by the action of such acids on soft tissues. […] The typical application time for the desired depth of etching can be from 1-5 minutes for home use, and up for up to 10-20 minutes for professional use. The safe treatment time (STT) is defined as the time during which acid can interact with the soft tissues without damaging them. The STT depends on the acid concentration and the temperature, i.e. STT (pH,T), where pH is the pH of the acid, and T is the temperature of the acid. […] The experiment was conducted on subjects with healthy oral tissues. Prior to treatment, the acid was heated to a control temperature T, using a thermostat, and a small volume (approximately 5×10^−3 ml) of acid was applied to an area of the subject's gingival tissue. The thermo-relaxation time of such a volume is approximately 5-10 seconds. To provide for a relatively constant temperature on the tissue surface, the acid was reapplied at the same temperature T to the same area every 5-10 seconds. This procedure was repeated until the subject reported discomfort. A feeling of discomfort always precedes tissue damage. Therefore, the time of the onset of discomfort can be used as an estimate of the STT with a certain safety margin.

[2] = Comparison of edible acids as bleaching agents for removal of stains in enamel; conditions: low pH (<2.5), intact enamel
Protocol: The ability of an aqueous acidic solution to deconstruct and dissolve both organic and inorganic components depends on the period of time, pH, concentration, and temperature at which the process occurs. The color of the enamel after stain removal and bleaching is determined by how closely the structure after etching matches the natural structure and how well light is scattered from the surface of the tooth. Remineralization is however, a slow process, so caution in carrying out the procedure is recommended, and it is desirable to protect the new surface with a hard material. To achieve this, the present invention proposes the use of a high concentration of acid to minimize the time of treatment. For a high concentration of acid to be used safely within the oral cavity, two fundamental safety concerns need to be addressed: firstly toxicity and secondly soft tissue damage. To completely eliminate the toxicity problem, especially for home use, we propose the use of an edible acid which is non-toxic when ingested. The volume of acid for any application in the present invention is limited to several cubic centimeters. After dissolution in saliva the concentration of the acid ingested will drop, and the pH will increase, which is typical for foodstuffs. A typical pH for food acids is 2.5 or more. We have studied the effect of a low pH (<2.5) edible acid on intact enamel. […]

[3] = Example 3: thermal treatment of etched enamel impregnated by sapphire particles (CO2 laser), in vitro; design: species or system human; conditions: pH=1.5, approximately +50° C., approximately 10 minutes
Protocol: The authors produced a durable, white colored coating on the enamel surface in an in-vitro experiment as described below. The experiment was conducted on freshly extracted teeth from subjects in the 25-40 age group. The teeth were extracted for periodontal reasons. All specimens had healthy, intact enamel. Prior to the experiment, the specimen were stored for no longer than two weeks in a physiological solution, in a dark place at a temperature of approximately +4° C.
One half of the crown of the tooth was coated with varnish. […] The tooth was exposed to the acid for a period of approximately 10 minutes, which was sufficient for the formation of a porous layer of enamel, approximately 50 μm in thickness on unprotected side of the specimen. […]
Thermocycling test was performed after described treatment The tooth was placed into two alternate water baths, one at +25° C. and the other at +90° C., for a period of 2 seconds into each bath, for a total immersion of 100 cycles. The hardness of the treated and untreated sides was assessed, before and after thermocycling, using a dental probe. The strength of the adhesion of the newly formed layer with sapphire particles to the underlying enamel was also assessed using the tip of the dental probe in an attempt to dislodge the newly formed layer at the border.

Compound: O=C(O)CC(O)(CC(=O)O)C(=O)O [citric acid]
- change in gingival tissue and hypersensitivity ([1]; after treatment or during follow up appointments): No change in gingival tissue and no hypersensitivity
- gloss of treatment side versus control side ([1]; immediately after treatment): less glossy than the control side
- pain or discomfort throughout the treatment ([1]; pH=1.5, average +50° C., 10 minutes): did not report any pain or discomfort
- safe treatment time (STT) (gingival tissue; 50° C., pH of 1.5): greater than 8 minutes
- damage to soft tissues (gingival tissue; high concentrations and high temperatures (up to 90° C.)): did not cause damage to soft tissues
- effect of discomfort on gingival tissue (gingival tissue; pH=1.5, T +20 °C, t 1 min): −
- effect of discomfort on gingival tissue (gingival tissue; pH=1.5, T +20 °C, t 2 min): −
- effect of discomfort on gingival tissue (gingival tissue; pH=1.5, T +20 °C, t 3 min): −
- effect of discomfort on gingival tissue (gingival tissue; pH=1.5, T +20 °C, t 4 min): −
- effect of discomfort on gingival tissue (gingival tissue; pH=1.5, T +20 °C, t 5 min): −
- effect of discomfort on gingival tissue (gingival tissue; pH=1.5, T +20 °C, t 6 min): −
- effect of discomfort on gingival tissue (gingival tissue; pH=1.5, T +20 °C, t 7 min): −
- effect of discomfort on gingival tissue (gingival tissue; pH=1.5, T +20 °C, t 8 min): −
- effect of discomfort on gingival tissue (gingival tissue; pH=1.5, T +20 °C, t 9 min): −
- effect of discomfort on gingival tissue (gingival tissue; pH=1.5, T +20 °C, t 10 min): −
- effect of discomfort on gingival tissue (gingival tissue; pH=1.5, T +20 °C, t 11 min): −
- effect of discomfort on gingival tissue (gingival tissue; pH=1.5, T +20 °C, t 12 min): +
- effect of discomfort on gingival tissue (gingival tissue; pH=1.5, T +36 °C, t 1 min): −
- effect of discomfort on gingival tissue (gingival tissue; pH=1.5, T +36 °C, t 2 min): −
- effect of discomfort on gingival tissue (gingival tissue; pH=1.5, T +36 °C, t 3 min): −
- effect of discomfort on gingival tissue (gingival tissue; pH=1.5, T +36 °C, t 4 min): −
- effect of discomfort on gingival tissue (gingival tissue; pH=1.5, T +36 °C, t 5 min): −
- effect of discomfort on gingival tissue (gingival tissue; pH=1.5, T +36 °C, t 6 min): −
- effect of discomfort on gingival tissue (gingival tissue; pH=1.5, T +36 °C, t 7 min): −
- effect of discomfort on gingival tissue (gingival tissue; pH=1.5, T +36 °C, t 8 min): −
- effect of discomfort on gingival tissue (gingival tissue; pH=1.5, T +36 °C, t 9 min): −
- effect of discomfort on gingival tissue (gingival tissue; pH=1.5, T +36 °C, t 10 min): +
- effect of discomfort on gingival tissue (gingival tissue; pH=1.5, T +50 °C, t 1 min): −
- effect of discomfort on gingival tissue (gingival tissue; pH=1.5, T +50 °C, t 2 min): −
- effect of discomfort on gingival tissue (gingival tissue; pH=1.5, T +50 °C, t 3 min): −
- effect of discomfort on gingival tissue (gingival tissue; pH=1.5, T +50 °C, t 4 min): −
- effect of discomfort on gingival tissue (gingival tissue; pH=1.5, T +50 °C, t 5 min): −
- effect of discomfort on gingival tissue (gingival tissue; pH=1.5, T +50 °C, t 6 min): −
- effect of discomfort on gingival tissue (gingival tissue; pH=1.5, T +50 °C, t 7 min): −
- effect of discomfort on gingival tissue (gingival tissue; pH=1.5, T +50 °C, t 8 min): +
- effect of discomfort on gingival tissue (gingival tissue; pH=1.5, T +70 °C, t 1 min): −
- effect of discomfort on gingival tissue (gingival tissue; pH=1.5, T +70 °C, t 2 min): −
- effect of discomfort on gingival tissue (gingival tissue; pH=1.5, T +70 °C, t 3 min): −
- effect of discomfort on gingival tissue (gingival tissue; pH=1.5, T +70 °C, t 4 min): −
- effect of discomfort on gingival tissue (gingival tissue; pH=1.5, T +70 °C, t 5 min): −
- effect of discomfort on gingival tissue (gingival tissue; pH=1.5, T +70 °C, t 6 min): +
- effect of discomfort on gingival tissue (gingival tissue; pH=1.5, T +90 °C, t 1 min): −
- effect of discomfort on gingival tissue (gingival tissue; pH=1.5, T +90 °C, t 2 min): −
- effect of discomfort on gingival tissue (gingival tissue; pH=1.5, T +90 °C, t 3 min): +
- effectiveness among edible acids (lactic, malic, tartaric, oxalic acid) [2]: most effective
- thickness of porous layer of enamel formed [3]: approximately 50 μm
